# Reference: US20140350273A1, “PEDIATRIC USES OF CABAZITAXEL” (AVENTIS PHARMA S.A., priority 2012, published 2014)
# Where two headings read alike, the source gives them in different places.
# Tested on: human osteosarcoma DM77
# Assay type: in vivo
# Conditions: for Tumor Volume Data (Day 21) Median / ΔT/ΔC % / ΔT/ΔC: day 21; for MTTE / T-C: volume endpoint 1400 mm^3
# Description: In the reported examples supporting this invention, vials of the clinical formulation of cabazitaxel and docetaxel were used. […] The resultant solution contains 10 mg/mL of cabazitaxel. Stock solution of cabazitaxel was then diluted in 0.9% sodium chloride.
# This efficacy may be quantified, for example, as changes in tumor volume for each treated (T) and control (C) group, which are calculated for each animal and each day by subtracting the tumor volume on the day of first treatment (staging day) from the tumor volume on the specified observation day. This allows calculating the tumor growth inhibition: ΔT/ΔC=(median delta T/median delta C)×100. Individual tumor volume changes from baseline are thereafter analyzed by a non-parametric two-way ANOVA-TYPE (with factors: group and repeated days) followed by a post-hoc contrasts analysis, with Bonferroni-Holm adjustment for multiplicity, comparing all treated groups to the control group. […] A probability less than 5% (p<0.05) was considered as significant.
# Based on the National Cancer Institute (NCl) standards, a ΔT/ΔC≦40% is the minimal level required to declare activity.
# This efficacy may also be quantified by the number of tumor regressions observed after therapy. Individual mice reporting a tumor volume ≦50% of the Day 0 measurement for two consecutive measurements over a seven day period were considered partial responders (PR). Individual mice lacking palpable tumors (<4×4 mm^2 for two consecutive measurements over a seven day period) were classified as complete responders (CR); a CR that persisted until study completion was considered a tumor-free survivor (TFS).
# Efficacy could also be determined at study completion, using tumor growth delay (T-C) in days, which is calculated using the median time to endpoint (MTTE) value for each treatment (T) group versus control (C). A Log Rank multiple comparison test with Bonferroni-Holm adjustment for multiplicity was applied on individual TTE to compare the treated groups to the control group.
# The efficacy of cabazitaxel in comparison with docetaxel on pediatric patient-derived tumor xenografts was determined experimentally in the following manner:
# The animals subjected to the experiment are subcutaneously grafted unilaterally with approximately 30 mg of a tumor fragment from low passage pediatric patient-derived tumor xenografts. The animals are implanted with a human patient-derived pediatric tumor xenografted in immuno-compromised mice (Harlan; nu/nu). Several days post tumor implantation, mice are randomized according to their tumor burden to the different groups of treatments and controls. The agents are dosed intravenously at 5.8, 9.3, 15 or 24.2 mg/kg every 4 days for a total of 3 doses (q4d×3) to mice bearing a tumor burden at start of therapy (day 0) ranged from 125 to 250 mm^3.
# Beginning Day 0, animals were observed daily and weighed twice weekly using a digital scale; data including individual and mean gram weights (Mean We±SD), mean percent weight change versus Day 0 were recorded for each group. Animal deaths were recorded daily and designated as drug-related (D), technical (T), tumor related (B), or unknown (U) based on weight loss and gross observation; single agent or combination groups reporting a mean >20% for a period of 7 days and/or >10% mortality were considered above the maximum tolerated dose (MTD) for that treatment on the evaluated regimen.
# The selected tumor model, DM77, was a low passage patient-derived tumor xenograft derived from an osteosarcoma taken from the lung of a patient. […]
smiles,measurement,setting,value
"CC(=O)O[C@@]12CO[C@@H]1C[C@H](O)[C@@]1(C)C(=O)[C@H](O)C3=C(C)[C@@H](OC(=O)[C@H](O)[C@@H](NC(=O)OC(C)(C)C)c4ccccc4)C[C@@](O)([C@@H](OC(=O)c4ccccc4)[C@H]21)C3(C)C [Docetaxel, docetaxel]",#CR,5.8 mg/kg i.v./q4dx3,0/0/0
same,#PR,5.8 mg/kg i.v./q4dx3,0/0/0
same,#TFS,5.8 mg/kg i.v./q4dx3,0/0/0
same,Drug Deaths Total,5.8 mg/kg i.v./q4dx3,0
same,Weight Change at Nadir %,5.8 mg/kg i.v./q4dx3,−6%
same,Weight Change at Nadir Day,5.8 mg/kg i.v./q4dx3,11 days
same,Tumor Volume Data (Day 21) Median,5.8 mg/kg i.v./q4dx3,300 mm^3
same,ΔT/ΔC %,5.8 mg/kg i.v./q4dx3,18.5%
same,MTTE,5.8 mg/kg i.v./q4dx3,53 days
same,T-C,5.8 mg/kg i.v./q4dx3,28 days
same,ΔT/ΔC,5.8 mg/kg q4d×3 IV,18.5%
same,"tumor volume changes from baseline, Median +/− nMAD","5.8 mg/kg, DAY 4",47 +/− 47
same,"tumor volume changes from baseline, Median +/− nMAD","5.8 mg/kg, DAY 7",73 +/− 23
same,"tumor volume changes from baseline, Median +/− nMAD","5.8 mg/kg, DAY 11",122 +/− 56
same,"tumor volume changes from baseline, Median +/− nMAD","5.8 mg/kg, DAY 14",129 +/− 63
same,"tumor volume changes from baseline, Median +/− nMAD","5.8 mg/kg, DAY 18",169 +/− 116
same,"tumor volume changes from baseline, Median +/− nMAD","5.8 mg/kg, DAY 21",169 +/− 103
same,"tumor volume changes from baseline, Median +/− nMAD","5.8 mg/kg, DAY 25",217 +/− 151
same,"tumor volume changes from baseline, Median +/− nMAD","5.8 mg/kg, DAY 28",290 +/− 198
same,"tumor volume changes from baseline, Median +/− nMAD","5.8 mg/kg, DAY 32",332 +/− 266
same,"tumor volume changes from baseline, Median +/− nMAD","5.8 mg/kg, DAY 35",342 +/− 250
same,"tumor volume changes from baseline, Median +/− nMAD","5.8 mg/kg, DAY 39",342 +/− 121
same,"tumor volume changes from baseline, Median +/− nMAD","5.8 mg/kg, DAY 42",401 +/− 169.5
same,"tumor volume changes from baseline, Median +/− nMAD","5.8 mg/kg, DAY 46",546 +/− 185.5
same,"tumor volume changes from baseline, Median +/− nMAD","5.8 mg/kg, DAY 49",512 +/− 142
same,"tumor volume changes from baseline, Median +/− nMAD","5.8 mg/kg, DAY 53",657.5
same,"tumor volume changes from baseline, Median +/− nMAD","5.8 mg/kg, DAY 56",875.5
same,#CR,9.3 mg/kg i.v./q4dx3,0/0/0
same,#PR,9.3 mg/kg i.v./q4dx3,0/0/0
same,#TFS,9.3 mg/kg i.v./q4dx3,0/0/0
same,Drug Deaths Total,9.3 mg/kg i.v./q4dx3,0
same,Weight Change at Nadir %,9.3 mg/kg i.v./q4dx3,−7%
same,Weight Change at Nadir Day,9.3 mg/kg i.v./q4dx3,14 days
same,Tumor Volume Data (Day 21) Median,9.3 mg/kg i.v./q4dx3,266 mm^3
same,ΔT/ΔC %,9.3 mg/kg i.v./q4dx3,9.6%
same,MTTE,9.3 mg/kg i.v./q4dx3,>60 days
same,T-C,9.3 mg/kg i.v./q4dx3,>35 days
same,numbers of PR,9.3 mg/kg q4d×3 IV,0/9
same,ΔT/ΔC,9.3 mg/kg q4d×3 IV,9.6%
same,"tumor volume changes from baseline, Median +/− nMAD","9.3 mg/kg, DAY 4",87 +/− 40
same,"tumor volume changes from baseline, Median +/− nMAD","9.3 mg/kg, DAY 7",87 +/− 42
same,"tumor volume changes from baseline, Median +/− nMAD","9.3 mg/kg, DAY 11",96 +/− 77
same,"tumor volume changes from baseline, Median +/− nMAD","9.3 mg/kg, DAY 14",96 +/− 69
same,"tumor volume changes from baseline, Median +/− nMAD","9.3 mg/kg, DAY 18",96 +/− 69
same,"tumor volume changes from baseline, Median +/− nMAD","9.3 mg/kg, DAY 21",88 +/− 74
same,"tumor volume changes from baseline, Median +/− nMAD","9.3 mg/kg, DAY 25",124 +/− 93
same,"tumor volume changes from baseline, Median +/− nMAD","9.3 mg/kg, DAY 28",124 +/− 171
same,"tumor volume changes from baseline, Median +/− nMAD","9.3 mg/kg, DAY 32",154 +/− 201
same,"tumor volume changes from baseline, Median +/− nMAD","9.3 mg/kg, DAY 35",169 +/− 235
same,"tumor volume changes from baseline, Median +/− nMAD","9.3 mg/kg, DAY 39",202 +/− 268
same,"tumor volume changes from baseline, Median +/− nMAD","9.3 mg/kg, DAY 42",309 +/− 375
same,"tumor volume changes from baseline, Median +/− nMAD","9.3 mg/kg, DAY 46",309 +/− 375
same,"tumor volume changes from baseline, Median +/− nMAD","9.3 mg/kg, DAY 49",424.5
same,"tumor volume changes from baseline, Median +/− nMAD","9.3 mg/kg, DAY 53",542 +/− 447.5
same,"tumor volume changes from baseline, Median +/− nMAD","9.3 mg/kg, DAY 56",493 +/− 238
same,#CR,15 mg/kg i.v./q4dx3,0
same,#PR,15 mg/kg i.v./q4dx3,3
same,#TFS,15 mg/kg i.v./q4dx3,0
same,Drug Deaths Total,15 mg/kg i.v./q4dx3,0
same,Weight Change at Nadir %,15 mg/kg i.v./q4dx3,−14%
same,Weight Change at Nadir Day,15 mg/kg i.v./q4dx3,11 days
same,Tumor Volume Data (Day 21) Median,15 mg/kg i.v./q4dx3,78 mm^3
same,ΔT/ΔC %,15 mg/kg i.v./q4dx3,−5.9%
same,MTTE,15 mg/kg i.v./q4dx3,>60 days
same,T-C,15 mg/kg i.v./q4dx3,>35 days
same,"tumor volume changes from baseline, Median +/− nMAD","15 mg/kg, DAY 4",66 +/− 66
same,"tumor volume changes from baseline, Median +/− nMAD","15 mg/kg, DAY 7",73 +/− 73
same,"tumor volume changes from baseline, Median +/− nMAD","15 mg/kg, DAY 11",−41 +/− 41
same,"tumor volume changes from baseline, Median +/− nMAD","15 mg/kg, DAY 14",−41 +/− 41
same,"tumor volume changes from baseline, Median +/− nMAD","15 mg/kg, DAY 18",−53 +/− 17
same,"tumor volume changes from baseline, Median +/− nMAD","15 mg/kg, DAY 21",−54 +/− 12
same,"tumor volume changes from baseline, Median +/− nMAD","15 mg/kg, DAY 25",−66 +/− 17
same,"tumor volume changes from baseline, Median +/− nMAD","15 mg/kg, DAY 28",−66 +/− 17
same,"tumor volume changes from baseline, Median +/− nMAD","15 mg/kg, DAY 32",−66 +/− 17
same,"tumor volume changes from baseline, Median +/− nMAD","15 mg/kg, DAY 35",−66 +/− 13
same,"tumor volume changes from baseline, Median +/− nMAD","15 mg/kg, DAY 39",−66 +/− 13
same,"tumor volume changes from baseline, Median +/− nMAD","15 mg/kg, DAY 42",−66 +/− 13
same,"tumor volume changes from baseline, Median +/− nMAD","15 mg/kg, DAY 46",−58 +/− 11
same,"tumor volume changes from baseline, Median +/− nMAD","15 mg/kg, DAY 49",−58 +/− 11
same,"tumor volume changes from baseline, Median +/− nMAD","15 mg/kg, DAY 53",−58 +/− 11
same,"tumor volume changes from baseline, Median +/− nMAD","15 mg/kg, DAY 56",−58 +/− 11
same,#CR,24.2 mg/kg i.v./q4dx3,1
same,#PR,24.2 mg/kg i.v./q4dx3,6
same,#TFS,24.2 mg/kg i.v./q4dx3,1
same,Drug Deaths Total,24.2 mg/kg i.v./q4dx3,0
same,Weight Change at Nadir %,24.2 mg/kg i.v./q4dx3,−17%
same,Weight Change at Nadir Day,24.2 mg/kg i.v./q4dx3,14 days
same,Tumor Volume Data (Day 21) Median,24.2 mg/kg i.v./q4dx3,71.5 mm^3
same,ΔT/ΔC %,24.2 mg/kg i.v./q4dx3,−6.1%
same,MTTE,24.2 mg/kg i.v./q4dx3,>60 days
same,T-C,24.2 mg/kg i.v./q4dx3,>35 days
same,"tumor volume changes from baseline, Median +/− nMAD","24.2 mg/kg, DAY 4",0 +/− 0
same,"tumor volume changes from baseline, Median +/− nMAD","24.2 mg/kg, DAY 7",0 +/− 0
same,"tumor volume changes from baseline, Median +/− nMAD","24.2 mg/kg, DAY 11",−50 +/− 24
same,"tumor volume changes from baseline, Median +/− nMAD","24.2 mg/kg, DAY 14",−55.5 +/− 20
same,"tumor volume changes from baseline, Median +/− nMAD","24.2 mg/kg, DAY 18",−55.5 +/− 20
same,"tumor volume changes from baseline, Median +/− nMAD","24.2 mg/kg, DAY 21",−55.5 +/− 10.5
same,"tumor volume changes from baseline, Median +/− nMAD","24.2 mg/kg, DAY 25",−55.5 +/− 10.5
same,"tumor volume changes from baseline, Median +/− nMAD","24.2 mg/kg, DAY 28",−53.5 +/− 13
same,"tumor volume changes from baseline, Median +/− nMAD","24.2 mg/kg, DAY 32",−53.5 +/− 33
same,"tumor volume changes from baseline, Median +/− nMAD","24.2 mg/kg, DAY 35",−57.5 +/− 45.5
same,"tumor volume changes from baseline, Median +/− nMAD","24.2 mg/kg, DAY 39",−57.5
same,"tumor volume changes from baseline, Median +/− nMAD","24.2 mg/kg, DAY 42",−57.5
same,"tumor volume changes from baseline, Median +/− nMAD","24.2 mg/kg, DAY 46",−57.5
same,"tumor volume changes from baseline, Median +/− nMAD","24.2 mg/kg, DAY 49",−48 +/− 45.5
same,"tumor volume changes from baseline, Median +/− nMAD","24.2 mg/kg, DAY 53",−48 +/− 69.5
same,"tumor volume changes from baseline, Median +/− nMAD","24.2 mg/kg, DAY 56",−48 +/− 69.5
